# Results from ChEMBL document CHEMBL1145787, “Synthesis and structure-activity relationship of N-substituted 4-arylsulfonylpiperidine-4-hydroxamic acids as novel, orally active matrix metalloproteinase inhibitors for the treatment of osteoarthritis” (J Med Chem, 2003).
# Columns and labels:
# Collagenase 3 = Collagenase 3 (Homo sapiens, UniProt P45452)
# [1] = In vivo inhibitory activity against Matrix metalloprotease enzyme by dialysis implant assay, value is relative to activity of CGS-27023 (65+/-2) at 25 mg/kg. po; type: functional
# [2] = In vivo inhibition of Matrix metalloprotease enzyme by Sponge-wrapped cartilage assay, value is relative to activity of RS-130830 (39+/-2) at 10 mg/kg. po. bid; type: functional
# [3] = biological target: Matrix metalloproteinase-9 (Homo sapiens, UniProt P14780); assay: In vitro inhibitory activity against matrix metalloprotease-9.
# Chain of Matrix metalloproteinase-9 (P14780 whole entry): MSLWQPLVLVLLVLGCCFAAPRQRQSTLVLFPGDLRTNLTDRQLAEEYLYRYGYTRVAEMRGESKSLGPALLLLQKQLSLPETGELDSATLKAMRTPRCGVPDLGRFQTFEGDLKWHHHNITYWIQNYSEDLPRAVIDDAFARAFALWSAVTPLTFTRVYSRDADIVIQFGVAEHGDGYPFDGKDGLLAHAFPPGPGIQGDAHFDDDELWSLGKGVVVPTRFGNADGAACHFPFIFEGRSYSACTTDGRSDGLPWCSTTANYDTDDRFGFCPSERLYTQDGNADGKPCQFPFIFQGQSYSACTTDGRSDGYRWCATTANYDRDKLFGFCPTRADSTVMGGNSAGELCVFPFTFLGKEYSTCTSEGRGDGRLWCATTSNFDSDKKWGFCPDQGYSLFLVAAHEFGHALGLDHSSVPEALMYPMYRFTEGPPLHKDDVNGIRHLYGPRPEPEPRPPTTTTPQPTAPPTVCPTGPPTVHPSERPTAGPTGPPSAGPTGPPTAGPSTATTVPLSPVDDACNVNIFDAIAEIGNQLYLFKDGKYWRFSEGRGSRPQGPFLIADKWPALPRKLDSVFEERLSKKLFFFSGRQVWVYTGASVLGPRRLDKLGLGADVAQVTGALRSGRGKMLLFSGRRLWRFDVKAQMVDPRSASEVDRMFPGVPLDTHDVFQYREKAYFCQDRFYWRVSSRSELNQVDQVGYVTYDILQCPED
# [4] = In vivo inhibitory activity against Matrix metalloprotease enzyme by dialysis implant assay, value are relative to activity of CGS-27023 (64+/-3) at 25 mg/kg. po; type: functional
# [5] = biological target: Disintegrin and metalloproteinase domain-containing protein 17 (Homo sapiens, UniProt P78536)
# Chain of Disintegrin and metalloproteinase domain-containing protein 17 (P78536 whole entry, the tested form may be a part): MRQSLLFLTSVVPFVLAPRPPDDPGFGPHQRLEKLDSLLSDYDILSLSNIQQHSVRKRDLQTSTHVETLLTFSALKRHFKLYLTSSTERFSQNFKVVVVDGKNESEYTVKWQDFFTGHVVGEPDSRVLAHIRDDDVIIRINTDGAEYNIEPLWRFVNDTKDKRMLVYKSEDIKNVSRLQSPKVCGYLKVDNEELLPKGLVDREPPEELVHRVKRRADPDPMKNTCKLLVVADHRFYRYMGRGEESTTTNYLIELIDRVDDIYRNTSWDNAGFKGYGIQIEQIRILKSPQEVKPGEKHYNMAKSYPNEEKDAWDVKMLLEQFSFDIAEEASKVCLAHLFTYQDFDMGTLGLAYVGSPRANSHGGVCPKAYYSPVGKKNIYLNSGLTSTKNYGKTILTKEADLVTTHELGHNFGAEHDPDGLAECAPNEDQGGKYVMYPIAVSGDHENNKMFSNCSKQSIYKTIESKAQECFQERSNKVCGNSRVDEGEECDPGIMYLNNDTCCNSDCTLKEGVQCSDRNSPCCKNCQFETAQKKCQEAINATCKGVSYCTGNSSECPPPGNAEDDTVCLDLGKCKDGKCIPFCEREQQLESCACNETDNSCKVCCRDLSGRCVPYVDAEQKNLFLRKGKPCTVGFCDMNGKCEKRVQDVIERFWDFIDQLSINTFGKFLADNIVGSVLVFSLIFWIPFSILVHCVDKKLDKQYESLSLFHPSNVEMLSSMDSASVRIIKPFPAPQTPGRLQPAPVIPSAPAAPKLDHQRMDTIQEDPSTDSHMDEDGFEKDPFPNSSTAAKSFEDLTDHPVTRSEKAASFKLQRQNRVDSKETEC
# [6] = In vivo inhibition of Matrix metalloprotease enzyme by Sponge-wrapped cartilage assay, value are relative to activity of RS-130830 (27+/-3) at 10 mg/kg. po. bid; type: functional
# Interstitial collagenase = biological target: T1, Interstitial collagenase (Homo sapiens, UniProt P03956); assay: In vitro inhibitory activity against matrix metalloprotease-1
# T1 sequence (P03956 whole entry): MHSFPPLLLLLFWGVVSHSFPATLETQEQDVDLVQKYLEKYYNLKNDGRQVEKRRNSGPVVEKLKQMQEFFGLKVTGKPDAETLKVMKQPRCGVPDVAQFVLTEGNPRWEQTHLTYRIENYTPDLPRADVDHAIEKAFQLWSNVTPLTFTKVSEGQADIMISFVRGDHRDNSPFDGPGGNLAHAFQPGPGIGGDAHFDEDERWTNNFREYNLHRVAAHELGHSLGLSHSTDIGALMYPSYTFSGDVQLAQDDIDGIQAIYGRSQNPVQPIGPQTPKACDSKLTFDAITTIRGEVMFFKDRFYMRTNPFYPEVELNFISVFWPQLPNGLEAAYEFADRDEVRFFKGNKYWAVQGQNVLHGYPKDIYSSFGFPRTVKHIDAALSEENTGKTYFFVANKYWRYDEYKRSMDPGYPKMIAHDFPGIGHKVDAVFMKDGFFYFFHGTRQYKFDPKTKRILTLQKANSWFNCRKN
# [7] = In vivo inhibitory activity against Matrix metalloprotease enzyme by dialysis implant assay, value is relative to activity of CGS-27023 (53+/-3) at 25 mg/kg. po; type: functional
# Rattus norvegicus = assay: In vivo inhibition of Matrix metalloprotease enzyme by Sponge-wrapped cartilage assay at 25 mg/kg. po. qd; type: functional
smiles,measurement,setting,value
CN1CCC(C(=O)NO)(S(=O)(=O)c2ccc(Oc3ccc(Cl)cc3)cc2)CC1,IC50,Collagenase 3,2 nM
same,inhibition in vivo at 25 mg/kg,[1],91%
same,inhibition in vivo at 10 mg/kg,[2],73%
CCC(CC)Oc1ccc(S(=O)(=O)C2(C(=O)NO)CCN(Cc3ccccc3)CC2)cc1,IC50,[3],14 nM
same,inhibition in vivo at 25 mg/kg,[4],68%
same,IC50,[5],39 nM
same,inhibition in vivo at 10 mg/kg,[6],27%
same,IC50,Collagenase 3,5 nM
same,IC50,Interstitial collagenase,3160 nM
COc1ccc(S(=O)(=O)C2(C(=O)NO)CCN(CCCc3ccccc3)CC2)cc1,IC50,[3],13 nM
same,inhibition in vivo at 25 mg/kg,[7],9%
COc1ccc(S(=O)(=O)C(C)(Cc2ccc(OCCN3CCCCC3)cc2)C(=O)NO)cc1 (configuration not stated),Protection,Rattus norvegicus,68%
